# Experimental data as given in patent US4929602A, “Method of inhibiting platelet dependent arterial thrombosis” (Scripps Clinic and Research Foundation, priority 1988, dated 1990).
# Experiments:
# [1] = PPACK concentration in the plasma during infusion (graft study); type: in vivo, baboon; conditions: intravenous infusion at 100 nmol/kg/min (about 15 minutes)
# Source text: Methods for determining the concentration of a Formula (1) peptide in the plasma are well known in the art, a preferred method being that described by Collen et al., J. Lab. Clin. Med., 99:76-83 (1982), whose disclosures are incorporated herein by reference.
# [2] = Blood and plasma determinations during dialyzer exposure (APTT, FPA, fibrinogen, cell counts, bleeding time, PF4, βTG, C3a); type: in vivo, baboon
# Method: PPACK or standard heparin (from porcine intestinal mucosal, Invenex Laboratories, Chagrin Falls, Ohio) was infused into the arterial limb of the vascular shunt immediately proximal to the dialyzer.
# Blood cell counts (platelets, white blood cells, and red blood cells) were performed on disodium EDTA anticoagulated whole blood using a J. T. Baker whole blood analyzer Model 810 (Allentown, Pa.). Hanson et al., J. Clin. Invest. 75:1591-99 (1985); and Hanson et al., Arteriosclerosis, 5:595-603 (1985). Standard template bleeding times, were performed on the shave volar surface of the forearm in a manner as described in Harker et al., New. Eng. J. Med., 287:155-59 (1972) and Malpass et al., Blood, 57:736-40 (1981). Bleeding times were done in duplicate and averaged. Commercially available radioimmunometric assays were carried out to measure plasma levels of platelet factor 4 (PF4) (Abbott Laboratories, North Chicago, Ill.), β-thromboglobulin (βTG) (Amersham Corporation, Arlington Heights, Ill.), fibrinopeptide A (FPA) (MICRO USA Inc., New York, N.Y.) and activated complement C3 antigen (C3a) (Amersham Corp.). Blood samples for these plasma assays were collected, processed and determined as described in the procedures of Example 1 and in Malpass et al., ibid. and Hanson et al., Arterosclerosis, 5:595-603 (1985). […] (APTT) were performed using a standard method (Activated PTT reagent, Ortho Diagnostics, Raritain, N.J.). A fibrometer (Fibrosystem, Division of Becton and Dickinson and Co., Cockeysville, […].) was used for endpoint clot detection as described in Biggs, R., Human Blood Coagulation, Haemostasis and Thrombosis, Oxford, Blackwell Scientific, pages 657-750 (1976). Fibrinogen was determined by a total clottable protein method described by Jacobsson K., Scand. J. Clin. Lab. Invest., 7(Suppl. 14):9-54 (1955).
# [3] = Plasma levels of PPACK (antithrombin activity) in carotid endarterectomy study; type: in vivo, baboon; conditions: iv
# [4] = Collen et al., cited from earlier work
# [5] = Plasma activity levels of heparin (anti-Xa) and PPACK (antithrombin) during dialyzer study; type: in vivo, baboon; conditions: for level at 0.5 h / level at 1 h: plasma, 100 nmol/kg per min, Plasma PPACK; for level at 0.5 h: 30 min; for level at 1 h: 60 min
# Method: Samples were centrifuged (2000×g, for 5 min) immediately after collection and the recovered plasma was frozen until assay. […] In some studies PPACK levels were determined at three sites: (i) systemic (ii) immediately proximal to the dialyzer but distal to the site of the PPACK infusion, and (iii) immediately distal to the dialyzer. Levels of heparin activity were determined by measuring the potentiating effect of heparin of plasma anti-Xa activity using a synthetic chromogenic substrate (Stachrom Heparin, Stago, France). Teien et al., Thrombo Research, 10:399-410 (1977).
# [6] = Template bleeding time and platelet count in carotid endarterectomy study (Example 2B); type: in vivo, baboon; conditions: treated animals, day 3
# Method: […] The mean platelet count was 318±70×10^3 /μl in the control group and 296±53×10^3 /μl in the treated group.
# Bleeding time measurements were performed in duplicate on the shaved volar surface of the forearm, using the standard template method as previously described for studies in baboons. Harker et al., Blood, 58:824-834 (1980).
# Hemostatic Function = test system: Hemostatic Function; set-up: species or system baboon; conditions: in vivo
# Method: After continuous infusion of a | given dose for 15 minutes (min.), the template bleeding time measurement | was begun and blood was drawn for thrombin time determinations. Escalatio | to the next dose was undertaken only after the bleeding time measurement | had been completed. The results are expressed as means ± one standard | deviation.
# [7] = test system: primate model of vascular graft thrombosis; conditions: aspirin 32.5 mg/kg/day orally 2 hours prior to graft placement; previous studies; cited from earlier work
SMILES,PPACK concentration in the plasma [1] [µg/mL],platelet count ([2]; during dialyzer exposure),C3a peak level ([2]; during dialyzer use) [ng/mL],"white blood cell count, early fall ([2]; during dialyzer use)","level at 1.5 h ([3]; 100 nmol/kg/min, 90 min after infusion) [ng/mL]","level at 0.5 h ([3]; 30 min after infusion, 100 nmol/kg/min for about 1 hour) [ng/mL]",T50 removal rate from the circulation [4],half-life of PPACK's ability to inhibit fibrin formation ([4]; rabbits),PPACK systemic plasma level ([5]; 100 nmol/kg per min infused proximal to the dialyzer) [µg/mL],level at 0.5 h ([5]; Postdialyzer) [ng/mL],level at 1 h ([5]; Postdialyzer) [ng/mL],level at 0.5 h ([5]; Predialyzer) [ng/mL],level at 1 h ([5]; Predialyzer) [ng/mL],level at 0.5 h ([5]; Systemic) [ng/mL],level at 1 h ([5]; Systemic) [ng/mL],Platelet counts [6],effect on heart rate or blood pressure (Hemostatic Function),platelet count (Hemostatic Function),effect on vascular graft 111In-platelet deposition [7]
"N=C(N)NCCC[C@H](NC(=O)[C@@H]1CCCN1C(=O)[C@H](N)Cc1ccccc1)C(=O)CCl [PPACK, D-phenylalanyl-L-propyl-L-arginyl-chloromethyl ketone]",1 to 2,401 ± 17 × 10^3 /μL,1989 ± 360,"5,900±810 cells/ul",1120 ± 270,3720 ± 610,less than 3 min,about 2.9 minutes,1.5 ± 0.06,3900 ± 500,4100 ± 1200,3050 ± 550,3650 ± 650,1400 ± 400,1600 ± 500,296±53 ×10^3 /μl,No effect,269 ± 54 × 10^9 /L,–
CC(=O)Oc1ccccc1C(=O)O [aspirin],–,–,–,–,–,–,–,–,–,–,–,–,–,–,–,–,–,–,neither aspirin (32.5 mg/kg/day given orally 2 hours prior to graft placement) not aspirin combined with heparin (100 units/kg) affected
